According to patent US10093650B2, “Tetrazolone-substituted dihydropyridinone MGAT2 inhibitors” (BRISTOL-MYERS SQUIBB COMPANY, priority 2014, dated 2018):

molecular target: human MGAT-2 (Homo sapiens (Human), UniProt Q3SYC2); test: MGAT LCMS Assay (human MGAT2); type: biochemical; settings: human MGAT-2 membranes expressed in Sf9 cells; 100 μM 2-oleoylglycerol, 15 μM oleoyl-coenzyme A; LC/MS readout; read-out: h-MGAT LCMS IC50
Method: The MGAT enzyme reactions were performed in Corning FALCON® 96-well polypropylene plates, in a total volume of 60 μL of 50 mM potassium phosphate buffer pH 7.4, containing a final concentration of 100 μM 2-oleoylglycerol, 15 μM oleoyl-coenzyme A and […] human or mouse MGAT-2 or […] rat recombinant MGAT-2 membranes expressed in Sf9 cells. Assay plates were run through a fully automated robotics system and shaken for 5 seconds every minute for a total 10 minutes. The reactions were then quenched with 120 μL of ice cold methanol containing 1 μg/mL 1,2-distearoyl-rac-glycerol as the internal standard. Plates were shaken for 2 minutes and spun down to remove protein precipitation. After the spin, samples were transferred to LC/MS compatible PCR plates. For LC/MS analysis, a ThermoFisher Surveyor pump, utilizing a Waters SYMMETRY® C8, 50×2.1 mm column, was used for the chromatography of enzyme products. The buffer system consists of 0.1% formic acid in water with a mobile phase consisting 0.1% formic acid in methanol. The shallow gradient is 90-100% mobile phase in 0.2 min with a total run time of 2.3 min. The first 0.5 minutes of each injection was diverted to waste to eliminate the presence of Phosphate buffer in the enzymatic reaction. The column was run at 0.6 mL/min and a temperature of 65° C. Mass spectrometry analysis of the samples was performed on a ThermoFisher Quantum Triple quad utilizing APCI (+) as the mode of ionization. Data was acquired in Single Ion Monitoring (SIM) mode analyzing Diolein=m/z 603.6 (PRODUCT) and 1,2-distearoyl-rac-glycerol (IS)=m/z 607.6. The ratio of Diolein to internal standard (Peak Area Ratio) is utilized to calculate IC50 values.
The exemplified Examples disclosed below were tested in the MGAT2 in vitro assays described above and were found having MGAT2 inhibitory activity. Table 1 below lists human MGAT2 IC50 values measured for the following examples.

Sequence of human MGAT-2 (Q3SYC2 whole entry): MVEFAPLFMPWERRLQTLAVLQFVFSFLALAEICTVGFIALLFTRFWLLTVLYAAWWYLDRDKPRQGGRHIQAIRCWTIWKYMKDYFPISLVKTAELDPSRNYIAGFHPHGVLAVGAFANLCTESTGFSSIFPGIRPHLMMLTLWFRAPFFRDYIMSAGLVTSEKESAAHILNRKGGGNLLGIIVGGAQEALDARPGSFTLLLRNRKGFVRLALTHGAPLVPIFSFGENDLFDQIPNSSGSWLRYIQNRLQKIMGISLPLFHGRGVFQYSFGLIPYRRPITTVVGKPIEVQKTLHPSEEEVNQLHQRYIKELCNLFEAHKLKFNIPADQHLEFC

Row | Compound | IC50 [nM]
1 | Cc1ccc(C2=C(n3nn[nH]c3=O)C(=O)N[C@@](c3ccc(OCCCCCC(F)(F)F)cc3)(C(F)(F)F)C2)cc1 [Example 2] | 5
2 | Cc1ccc(C2=C(n3nn[nH]c3=O)C(=O)N[C@@](c3ccc(OCCCC(F)(F)F)cc3)(C(F)(F)F)C2)cc1 [Example 1, (S)-3-(5-Oxo-4,5-dihydro-1H-tetrazol-1-yl)-4-(p-tolyl)-6-(4-(4,4,4-trifluorobutoxy)phenyl)-6-(trifluoromethyl)-5,6-dihydropyridin-2(1H)-one] | 27
3 | O=C1N[C@@](c2ccc(CCCCC(F)(F)F)cc2F)(C(F)(F)F)CC(c2ccn(CC3CC3)n2)=C1n1nn[nH]c1=O [Example 11] | 9
4 | O=C1N[C@@](c2ccc(OCCCC(F)(F)F)cc2F)(C(F)(F)F)CC(c2ccn(CC3CC3)n2)=C1n1nn[nH]c1=O [Example 14] | 5
5 | CCc1ccc(C2=C(n3nn[nH]c3=O)C(=O)N[C@H](c3ccc(OCCCC(F)(F)F)cc3Cl)C2)s1 [Example 24] | 36
6 | O=C1N[C@@](c2ccc(OCCCCCC(F)(F)F)cc2)(C(F)(F)F)CC(c2ccc(OC(F)F)cc2)=C1n1nn[nH]c1=O [Example 4] | 17
7 | O=C1N[C@@](c2ccc(OCCCC(F)(F)F)cc2F)(C(F)(F)F)CC(c2ccc(C(F)F)cc2)=C1n1nn[nH]c1=O [Example 21] | 10
8 | COc1ccc(C2=C(n3nn[nH]c3=O)C(=O)N[C@@](c3ccc(OCCCC(F)(F)F)cc3)(C(F)(F)F)C2)cc1 [Example 3] | 340
9 | CC(C)Cn1ccc(C2=C(n3nn[nH]c3=O)C(=O)N[C@@](c3ccc(CCCCC(F)(F)F)cc3F)(C(F)(F)F)C2)n1 [Example 12] | 34
10 | CCn1ccc(C2=C(n3nn[nH]c3=O)C(=O)N[C@@](c3ccc(CCCCC(F)(F)F)cc3F)(C(F)(F)F)C2)n1 [Example 13] | 84
11 | CCn1ccc(C2=C(n3nn[nH]c3=O)C(=O)N[C@@](c3ccc(OCCCC(F)(F)F)cc3F)(C(F)(F)F)C2)n1 [Example 9] | 108
12 | COc1ccc(C2=C(n3nn[nH]c3=O)C(=O)N[C@@](c3ccc(OCCCCCC(F)(F)F)cc3)(C(F)(F)F)C2)cc1 [Example 5] | 71
13 | CCc1ccc(C2=C(n3nn[nH]c3=O)C(=O)N[C@@](c3ccc(OCCCC(F)(F)F)cc3)(C(F)(F)F)C2)s1 [Example 23] | 60
14 | O=C1N[C@@](c2cnn(CCCCCCC(F)(F)F)c2)(C(F)(F)F)CC(c2ccc3c(c2)CCCC3)=C1n1nn[nH]c1=O [Example 17] | 5
15 | CC(C)n1ccc(C2=C(n3nn[nH]c3=O)C(=O)N[C@@](c3ccc(CCCCC(F)(F)F)cc3F)(C(F)(F)F)C2)n1 [Example 10] | 36
16 | CC(C)Cn1ccc(C2=C(n3nn[nH]c3=O)C(=O)N[C@@](c3ccc(OCCCC(F)(F)F)cc3F)(C(F)(F)F)C2)n1 [Example 15] | 145
17 | O=C1N[C@@](c2ccc(OCCCC(F)(F)F)cc2F)(C(F)(F)F)CC(c2ccn(C3CC3)n2)=C1n1nn[nH]c1=O [Example 7] | 173
18 | CC(=O)c1ccc(C2=C(n3nn[nH]c3=O)C(=O)N[C@@](c3ccc(OCCCC(F)(F)F)cc3)(C(F)(F)F)C2)s1 [Example 18] | 8
19 | O=C1N[C@@](c2ccc(OCCCC(F)(F)F)cc2F)(C(F)(F)F)CC(c2ccn(C3CCC3)n2)=C1n1nn[nH]c1=O [Example 8] | 30
20 | CC(C)n1ccc(C2=C(n3nn[nH]c3=O)C(=O)N[C@@](c3ccc(OCCCC(F)(F)F)cc3F)(C(F)(F)F)C2)n1 [Example 6] | 137
21 | CC(O)c1ccc(C2=C(n3nn[nH]c3=O)C(=O)N[C@@](c3ccc(OCCCC(F)(F)F)cc3)(C(F)(F)F)C2)s1 (stereo partly shown) [Example 19] | 10
22 | O=C1N[C@@](c2ccc(CCCCC(F)(F)F)cc2)(C(F)(F)F)CC(c2ccn(CC3CC3)n2)=C1n1nn[nH]c1=O [Example 20] | 3
